Assay results as given in PubChem BioAssay AID1918947 (Molecular Pharmacology Branch, DTP, NCI, 2023).

System: A498 complex spheroid viability
Experiment: Anticancer human tumor A498 cell line growth inhibition;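 note: spheroids exposed to agents for seven days before readout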;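 for viability, T/C: 100% = DMSO vehicle-treated spheroids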
Conditions: for IC50: curve of first compound; for viability, T/C: stronger effect = lower value
How it was run: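 Drug combinations with the LSD1 inhibitor iadademstat tested on tumor cells co-cultured as spheroids with endothelial cells and mesenchymal stem cells. Concentrations descended in half-log increments from clinical Cmax or 10 microM.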

[1] = second compound 0.1 µM, first compound 0.0316 µM
[2] = second compound 0.1 µM, first compound 0.1 µM
[3] = second compound 0.1 µM, first compound 0.316 µM
[4] = second compound 0.1 µM, first compound 1 µM
[5] = second compound 0.1 µM, first compound 3.16 µM
[6] = second compound 0.1 µM, first compound 10 µM
[7] = second compound 0.316 µM, first compound 0.0316 µM
[8] = second compound 0.316 µM, first compound 0.1 µM
[9] = second compound 0.316 µM, first compound 0.316 µM
[10] = second compound 0.316 µM, first compound 1 µM
[11] = second compound 0.316 µM, first compound 3.16 µM
[12] = second compound 0.316 µM, first compound 10 µM
[13] = second compound 1 µM, first compound 0.0316 µM
[14] = second compound 1 µM, first compound 0.1 µM
[15] = second compound 1 µM, first compound 0.316 µM
[16] = second compound 1 µM, first compound 1 µM
[17] = second compound 1 µM, first compound 3.16 µM
[18] = second compound 1 µM, first compound 10 µM
[19] = second compound 3.16 µM, first compound 0.0316 µM
[20] = second compound 3.16 µM, first compound 0.1 µM
[21] = second compound 3.16 µM, first compound 0.316 µM
[22] = second compound 3.16 µM, first compound 1 µM
[23] = second compound 3.16 µM, first compound 3.16 µM
[24] = second compound 3.16 µM, first compound 10 µM
[25] = second compound 10 µM, first compound 0.0316 µM
[26] = second compound 10 µM, first compound 0.1 µM
[27] = second compound 10 µM, first compound 0.316 µM
[28] = second compound 10 µM, first compound 1 µM
[29] = second compound 10 µM, first compound 3.16 µM
[30] = second compound 10 µM, first compound 10 µM
[31] = second compound 0.1 µM, first compound 0.00949 µM
[32] = second compound 0.1 µM, first compound 0.03 µM
[33] = second compound 0.1 µM, first compound 0.0949 µM
[34] = second compound 0.1 µM, first compound 0.3 µM
[35] = second compound 0.316 µM, first compound 0.00949 µM
[36] = second compound 0.316 µM, first compound 0.03 µM
[37] = second compound 0.316 µM, first compound 0.0949 µM
[38] = second compound 0.316 µM, first compound 0.3 µM
[39] = second compound 1 µM, first compound 0.00949 µM
[40] = second compound 1 µM, first compound 0.03 µM
[41] = second compound 1 µM, first compound 0.0949 µM
[42] = second compound 1 µM, first compound 0.3 µM
[43] = second compound 3.16 µM, first compound 0.00949 µM
[44] = second compound 3.16 µM, first compound 0.03 µM
[45] = second compound 3.16 µM, first compound 0.0949 µM
[46] = second compound 3.16 µM, first compound 0.3 µM
[47] = second compound 10 µM, first compound 0.00949 µM
[48] = second compound 10 µM, first compound 0.03 µM
[49] = second compound 10 µM, first compound 0.0949 µM
[50] = second compound 10 µM, first compound 0.3 µM

CC(C)c1c(-c2ccccc2)nc2c(C#N)c[nH]n2c1=O + NC1CCC(NC2CC2c2ccccc2)CC1
IC50 (second compound 0.1 µM): > 10000 nM | IC50 (second compound 0.316 µM): > 10000 nM | IC50 (second compound 1 µM): > 10000 nM | IC50 (second compound 3.16 µM): > 10000 nM | IC50 (second compound 10 µM): > 10000 nM | viability, T/C [1]: 88.3% | viability, T/C [2]: 87.8% | viability, T/C [3]: 89.3% | viability, T/C [4]: 87.3% | viability, T/C [5]: 91.3% | viability, T/C [6]: 86.5% | viability, T/C [7]: 84% | viability, T/C [8]: 85.8% | viability, T/C [9]: 87% | viability, T/C [10]: 87.8% | viability, T/C [11]: 82.7% | viability, T/C [12]: 85% | viability, T/C [13]: 88.8% | viability, T/C [14]: 86.4% | viability, T/C [15]: 89.2% | viability, T/C [16]: 88.2% | viability, T/C [17]: 86% | viability, T/C [18]: 86.9% | viability, T/C [19]: 84% | viability, T/C [20]: 79.9% | viability, T/C [21]: 82.3% | viability, T/C [22]: 87.6% | viability, T/C [23]: 83.8% | viability, T/C [24]: 82.4% | viability, T/C [25]: 64% | viability, T/C [26]: 69.3% | viability, T/C [27]: 66.3% | viability, T/C [28]: 69.6% | viability, T/C [29]: 66.4% | viability, T/C [30]: 69.5%

CC[C@@]1(O)C(=O)OCc2c1cc1n(c2=O)Cc2cc3c(CN(C)C)c(O)ccc3nc2-1 + NC1CCC(NC2CC2c2ccccc2)CC1
IC50 (second compound 0.1 µM): 39.6 nM | IC50 (second compound 0.316 µM): 47.3 nM | IC50 (second compound 1 µM): 38.4 nM | IC50 (second compound 3.16 µM): 36.3 nM | IC50 (second compound 10 µM): 29.3 nM | viability, T/C (second compound 0.1 µM, first compound 0.000316 µM): 82.3% | viability, T/C (second compound 0.1 µM, first compound 0.001 µM): 82.9% | viability, T/C (second compound 0.1 µM, first compound 0.00316 µM): 71.7% | viability, T/C (second compound 0.1 µM, first compound 0.01 µM): 61.2% | viability, T/C [1]: 57.5% | viability, T/C [2]: 35.7% | viability, T/C (second compound 0.316 µM, first compound 0.000316 µM): 96.6% | viability, T/C (second compound 0.316 µM, first compound 0.001 µM): 88.2% | viability, T/C (second compound 0.316 µM, first compound 0.00316 µM): 81.8% | viability, T/C (second compound 0.316 µM, first compound 0.01 µM): 68% | viability, T/C [7]: 59.1% | viability, T/C [8]: 37.4% | viability, T/C (second compound 1 µM, first compound 0.000316 µM): 85.3% | viability, T/C (second compound 1 µM, first compound 0.001 µM): 82.3% | viability, T/C (second compound 1 µM, first compound 0.00316 µM): 78.8% | viability, T/C (second compound 1 µM, first compound 0.01 µM): 62.8% | viability, T/C [13]: 56.6% | viability, T/C [14]: 32.2% | viability, T/C (second compound 3.16 µM, first compound 0.000316 µM): 78.7% | viability, T/C (second compound 3.16 µM, first compound 0.001 µM): 81.5% | viability, T/C (second compound 3.16 µM, first compound 0.00316 µM): 73.1% | viability, T/C (second compound 3.16 µM, first compound 0.01 µM): 64.8% | viability, T/C [19]: 53.7% | viability, T/C [20]: 30.6% | viability, T/C (second compound 10 µM, first compound 0.000316 µM): 76.9% | viability, T/C (second compound 10 µM, first compound 0.001 µM): 79% | viability, T/C (second compound 10 µM, first compound 0.00316 µM): 69.8% | viability, T/C (second compound 10 µM, first compound 0.01 µM): 61.9% | viability, T/C [25]: 50.1% | viability, T/C [26]: 28%

CC(C)c1c(-c2ccccc2)nc2c(C#N)c[nH]n2c1=O + NC1CC1c1ccc(-c2cccc(O)c2)cc1
IC50 (second compound 0.1 µM): > 10000 nM | IC50 (second compound 0.316 µM): > 10000 nM | IC50 (second compound 1 µM): > 10000 nM | IC50 (second compound 3.16 µM): > 10000 nM | IC50 (second compound 10 µM): > 10000 nM | viability, T/C [1]: 98% | viability, T/C [2]: 113% | viability, T/C [3]: 106% | viability, T/C [4]: 102% | viability, T/C [5]: 104% | viability, T/C [6]: 108% | viability, T/C [7]: 104% | viability, T/C [8]: 101% | viability, T/C [9]: 101% | viability, T/C [10]: 107% | viability, T/C [11]: 99.1% | viability, T/C [12]: 97.4% | viability, T/C [13]: 93.4% | viability, T/C [14]: 101% | viability, T/C [15]: 95.6% | viability, T/C [16]: 99.5% | viability, T/C [17]: 89% | viability, T/C [18]: 98% | viability, T/C [19]: 97.4% | viability, T/C [20]: 94% | viability, T/C [21]: 97.5% | viability, T/C [22]: 94.7% | viability, T/C [23]: 94.9% | viability, T/C [24]: 98.5% | viability, T/C [25]: 86.7% | viability, T/C [26]: 92% | viability, T/C [27]: 91.3% | viability, T/C [28]: 97.4% | viability, T/C [29]: 96.1% | viability, T/C [30]: 94.9%

Nc1ncn(C2CC(O)C(CO)S2)c(=O)n1 (stereo not given) + NC1CC1c1ccc(-c2cccc(O)c2)cc1
IC50 (second compound 0.1 µM): 255 nM | IC50 (second compound 0.316 µM): 254 nM | IC50 (second compound 1 µM): 257 nM | IC50 (second compound 3.16 µM): 236 nM | IC50 (second compound 10 µM): 259 nM | viability, T/C (second compound 0.1 µM, first compound 0.000949 µM): 110% | viability, T/C (second compound 0.1 µM, first compound 0.003 µM): 116% | viability, T/C [31]: 115% | viability, T/C [32]: 95.4% | viability, T/C [33]: 74.7% | viability, T/C [34]: 45.9% | viability, T/C (second compound 0.316 µM, first compound 0.000949 µM): 114% | viability, T/C (second compound 0.316 µM, first compound 0.003 µM): 121% | viability, T/C [35]: 116% | viability, T/C [36]: 104% | viability, T/C [37]: 81.9% | viability, T/C [38]: 44.6% | viability, T/C (second compound 1 µM, first compound 0.000949 µM): 118% | viability, T/C (second compound 1 µM, first compound 0.003 µM): 123% | viability, T/C [39]: 119% | viability, T/C [40]: 105% | viability, T/C [41]: 81.8% | viability, T/C [42]: 44.8% | viability, T/C (second compound 3.16 µM, first compound 0.000949 µM): 114% | viability, T/C (second compound 3.16 µM, first compound 0.003 µM): 106% | viability, T/C [43]: 125% | viability, T/C [44]: 109% | viability, T/C [45]: 78.7% | viability, T/C [46]: 42.5% | viability, T/C (second compound 10 µM, first compound 0.000949 µM): 104% | viability, T/C (second compound 10 µM, first compound 0.003 µM): 110% | viability, T/C [47]: 118% | viability, T/C [48]: 105% | viability, T/C [49]: 87.9% | viability, T/C [50]: 44.5%

NS(=O)(=O)OCC1CC(n2ccc3c(NC4CCc5ccccc54)ncnc32)CC1O (stereo not given) + NC1CCC(NC2CC2c2ccccc2)CC1
IC50 (second compound 0.1 µM): 20.8 nM | IC50 (second compound 0.316 µM): 20.2 nM | IC50 (second compound 1 µM): < 9.49 nM | IC50 (second compound 3.16 µM): < 9.49 nM | IC50 (second compound 10 µM): < 9.49 nM | viability, T/C [31]: 61.1% | viability, T/C [32]: 43.3% | viability, T/C [33]: 35% | viability, T/C [34]: 24% | viability, T/C (second compound 0.1 µM, first compound 0.949 µM): 19.4% | viability, T/C (second compound 0.1 µM, first compound 3 µM): 15.3% | viability, T/C [35]: 64.5% | viability, T/C [36]: 41.2% | viability, T/C [37]: 30.8% | viability, T/C [38]: 22.7% | viability, T/C (second compound 0.316 µM, first compound 0.949 µM): 17.8% | viability, T/C (second compound 0.316 µM, first compound 3 µM): 15.6% | viability, T/C [39]: 47.8% | viability, T/C [40]: 29.6% | viability, T/C [41]: 21.4% | viability, T/C [42]: 19.5% | viability, T/C (second compound 1 µM, first compound 0.949 µM): 14.3% | viability, T/C (second compound 1 µM, first compound 3 µM): 11.8% | viability, T/C [43]: 31.8% | viability, T/C [44]: 15.6% | viability, T/C [45]: 16.6% | viability, T/C [46]: 11.5% | viability, T/C (second compound 3.16 µM, first compound 0.949 µM): 8.41% | viability, T/C (second compound 3.16 µM, first compound 3 µM): 6.43% | viability, T/C [47]: 11.8% | viability, T/C [48]: 8.27% | viability, T/C [49]: 6.84% | viability, T/C [50]: 5.05% | viability, T/C (second compound 10 µM, first compound 0.949 µM): 4.15% | viability, T/C (second compound 10 µM, first compound 3 µM): 6.13%
